# Columns and labels:
# Escherichia coli [1] = assay: Inhibition of fenton reaction-induced pBR322 supercoiled DNA damage; type: functional
# Escherichia coli [2] = assay: Inhibition of fenton reaction-induced pBR322 supercoiled DNA damage at 1 mM; type: functional
SMILES,Activity (Escherichia coli [1]),inhibition (Escherichia coli [2]) [%]
C/C(=C/CC[C@@H](C)[C@H]1CC[C@@]2(C)C3=CC[C@H]4C(C)(C)[C@H](O)CC[C@]4(C)C3=C[C@@H](O[C@@H]3O[C@H](CO)[C@@H](O)[C@H](O)[C@H]3O)[C@]12C)C(=O)O,Dose-dependent effect,
C/C(=C/CC[C@@H](C)[C@H]1CC[C@@]2(C)C3=C(C[C@@H](O[C@@H]4O[C@H](CO)[C@@H](O)[C@H](O)[C@H]4O)[C@]12C)[C@@]1(C)CC[C@@H](O)C(C)(C)[C@@H]1CC3=O)C(=O)O,Dose-dependent effect,90
C/C(=C/CC[C@@H](C)[C@H]1CC[C@@]2(C)C3=CC[C@H]4C(C)(C)C(=O)CC[C@]4(C)C3=C[C@@H](O[C@@H]3O[C@H](CO)[C@@H](O)[C@H](O)[C@H]3O)[C@]12C)C(=O)O,Dose-dependent effect,

# Source: ChEMBL document CHEMBL1140678, “New triterpene glucosides, oligoporins A-C, from Oligoporus tephroleucus protect DNA from Fenton reaction” (Bioorg Med Chem Lett, 2007)
